Reference: PubChem BioAssay (NCI)
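Exposure lasted 48 hours, with cells grown in 96-well plates and compounds tested at five concentrations. The concentration for 50% growth inhibition is given as GI50. Definition used: TGI = concentration required for complete inhibition of growth.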

What follows are compounds tested on NCI/ADR-RES ovarian (assay: NCI-60 cell line screen, 48 h).

Compound	GI50	TGI
CCNCCNc1cc(-c2ccc(C(F)(F)F)cc2)c(C#N)c2nc3ccccc3n12	1.52 µM	2.98 µM
CCOC(=O)C1CCN(S(=O)(=O)/N=C2/NC(=O)NC2=C(Cl)Cl)CC1	4.36 µM	41.4 µM

The compounds below were run on HOP-62 NSCLC (assay: NCI-60 cell line screen, 48 h).

Compound	TGI	GI50
O=C(Nc1nnc(-c2ccc(Cl)cc2)o1)C(SC(=S)N1CCOCC1)c1ccccc1 (stereo not drawn)	> 100 µM	
CC(C)c1ccc(-c2cc(-c3cn[nH]c3-c3ccccn3)ccn2)cc1	> 25 µM	12 µM
CCNCCNc1cc(-c2ccc(C(F)(F)F)cc2)c(C#N)c2nc3ccccc3n12	3.18 µM	1.56 µM
CCOC(=O)C1CCN(S(=O)(=O)/N=C2/NC(=O)NC2=C(Cl)Cl)CC1	16.5 µM	0.971 µM

Each compound was assayed on BT-549 breast (assay: NCI-60 cell line screen, 48 h).

Compound	TGI	GI50
O=C(Nc1nnc(-c2ccc(Cl)cc2)o1)C(SC(=S)N1CCOCC1)c1ccccc1 (stereo not drawn)	62.5 µM	
CC(C)c1ccc(-c2cc(-c3cn[nH]c3-c3ccccn3)ccn2)cc1	> 25 µM	10.6 µM
CCNCCNc1cc(-c2ccc(C(F)(F)F)cc2)c(C#N)c2nc3ccccc3n12	3.16 µM	1.59 µM
CCOC(=O)C1CCN(S(=O)(=O)/N=C2/NC(=O)NC2=C(Cl)Cl)CC1	3.65 µM	1.68 µM

These compounds were tested on SN12C renal (assay: NCI-60 cell line screen, 48 h).

Compound	TGI	GI50
O=C(Nc1nnc(-c2ccc(Cl)cc2)o1)C(SC(=S)N1CCOCC1)c1ccccc1 (stereo not drawn)	42.7 µM	
CC(C)c1ccc(-c2cc(-c3cn[nH]c3-c3ccccn3)ccn2)cc1	> 25 µM	15.9 µM
CCNCCNc1cc(-c2ccc(C(F)(F)F)cc2)c(C#N)c2nc3ccccc3n12	2.83 µM	1.34 µM
CCOC(=O)C1CCN(S(=O)(=O)/N=C2/NC(=O)NC2=C(Cl)Cl)CC1	3.1 µM	1.55 µM

What follows are compounds tested on HCT-116 colon (assay: NCI-60 cell line screen, 48 h).

Compound	TGI	GI50
O=C(Nc1nnc(-c2ccc(Cl)cc2)o1)C(SC(=S)N1CCOCC1)c1ccccc1 (stereo not drawn)	26.5 µM	
CC(C)c1ccc(-c2cc(-c3cn[nH]c3-c3ccccn3)ccn2)cc1	> 25 µM	10.3 µM
CCNCCNc1cc(-c2ccc(C(F)(F)F)cc2)c(C#N)c2nc3ccccc3n12	1.32 µM	0.388 µM
CCOC(=O)C1CCN(S(=O)(=O)/N=C2/NC(=O)NC2=C(Cl)Cl)CC1	2.48 µM	0.736 µM

The compounds below were run on LOX IMVI melanoma (assay: NCI-60 cell line screen, 48 h).

Compound	TGI	GI50
O=C(Nc1nnc(-c2ccc(Cl)cc2)o1)C(SC(=S)N1CCOCC1)c1ccccc1 (stereo not drawn)	48.2 µM	
CC(C)c1ccc(-c2cc(-c3cn[nH]c3-c3ccccn3)ccn2)cc1	> 25 µM	14.6 µM
CCNCCNc1cc(-c2ccc(C(F)(F)F)cc2)c(C#N)c2nc3ccccc3n12	0.382 µM	0.185 µM

These compounds were tested on SW-620 colon (assay: NCI-60 cell line screen, 48 h).

Compound	TGI	GI50
O=C(Nc1nnc(-c2ccc(Cl)cc2)o1)C(SC(=S)N1CCOCC1)c1ccccc1 (stereo not drawn)	> 100 µM	
CC(C)c1ccc(-c2cc(-c3cn[nH]c3-c3ccccn3)ccn2)cc1	> 25 µM	18 µM
CCNCCNc1cc(-c2ccc(C(F)(F)F)cc2)c(C#N)c2nc3ccccc3n12	2.75 µM	1.22 µM
CCOC(=O)C1CCN(S(=O)(=O)/N=C2/NC(=O)NC2=C(Cl)Cl)CC1	4.37 µM	2.09 µM

Each compound was assayed on SK-MEL-5 melanoma (assay: NCI-60 cell line screen, 48 h).

Compound	TGI	GI50
O=C(Nc1nnc(-c2ccc(Cl)cc2)o1)C(SC(=S)N1CCOCC1)c1ccccc1 (stereo not drawn)	26.6 µM	
CC(C)c1ccc(-c2cc(-c3cn[nH]c3-c3ccccn3)ccn2)cc1	> 16.6 µM	6.65 µM
CCNCCNc1cc(-c2ccc(C(F)(F)F)cc2)c(C#N)c2nc3ccccc3n12	3.04 µM	1.67 µM
CCOC(=O)C1CCN(S(=O)(=O)/N=C2/NC(=O)NC2=C(Cl)Cl)CC1	4.26 µM	1.98 µM

What follows are compounds tested on IGROV1 ovarian (assay: NCI-60 cell line screen, 48 h).

Compound	TGI	GI50
O=C(Nc1nnc(-c2ccc(Cl)cc2)o1)C(SC(=S)N1CCOCC1)c1ccccc1 (stereo not drawn)	> 100 µM	
CC(C)c1ccc(-c2cc(-c3cn[nH]c3-c3ccccn3)ccn2)cc1	> 25 µM	> 23.3 µM
CCNCCNc1cc(-c2ccc(C(F)(F)F)cc2)c(C#N)c2nc3ccccc3n12	2.99 µM	1.45 µM
CCOC(=O)C1CCN(S(=O)(=O)/N=C2/NC(=O)NC2=C(Cl)Cl)CC1	3.93 µM	1.91 µM

What follows are compounds tested on SF-295 CNS (assay: NCI-60 cell line screen, 48 h).

Compound	TGI	GI50
O=C(Nc1nnc(-c2ccc(Cl)cc2)o1)C(SC(=S)N1CCOCC1)c1ccccc1 (stereo not drawn)	94.4 µM	
CC(C)c1ccc(-c2cc(-c3cn[nH]c3-c3ccccn3)ccn2)cc1	> 19.7 µM	7.68 µM
CCNCCNc1cc(-c2ccc(C(F)(F)F)cc2)c(C#N)c2nc3ccccc3n12	3.34 µM	1.83 µM
CCOC(=O)C1CCN(S(=O)(=O)/N=C2/NC(=O)NC2=C(Cl)Cl)CC1	14.1 µM	3.56 µM

What follows are compounds tested on OVCAR-5 ovarian (assay: NCI-60 cell line screen, 48 h).

Compound	TGI	GI50
O=C(Nc1nnc(-c2ccc(Cl)cc2)o1)C(SC(=S)N1CCOCC1)c1ccccc1 (stereo not drawn)	88.2 µM	
CC(C)c1ccc(-c2cc(-c3cn[nH]c3-c3ccccn3)ccn2)cc1	> 25 µM	> 16.6 µM
CCNCCNc1cc(-c2ccc(C(F)(F)F)cc2)c(C#N)c2nc3ccccc3n12	3.52 µM	1.94 µM
CCOC(=O)C1CCN(S(=O)(=O)/N=C2/NC(=O)NC2=C(Cl)Cl)CC1	14.7 µM	3.6 µM

These compounds were tested on UACC-257 melanoma (assay: NCI-60 cell line screen, 48 h).

Compound	TGI	GI50
O=C(Nc1nnc(-c2ccc(Cl)cc2)o1)C(SC(=S)N1CCOCC1)c1ccccc1 (stereo not drawn)	> 100 µM	
CC(C)c1ccc(-c2cc(-c3cn[nH]c3-c3ccccn3)ccn2)cc1	> 25 µM	> 25 µM
CCNCCNc1cc(-c2ccc(C(F)(F)F)cc2)c(C#N)c2nc3ccccc3n12	3.83 µM	2.18 µM
CCOC(=O)C1CCN(S(=O)(=O)/N=C2/NC(=O)NC2=C(Cl)Cl)CC1	7.24 µM	2.38 µM

These compounds were tested on ACHN renal (assay: NCI-60 cell line screen, 48 h).

Compound	TGI	GI50
O=C(Nc1nnc(-c2ccc(Cl)cc2)o1)C(SC(=S)N1CCOCC1)c1ccccc1 (stereo not drawn)	83.5 µM	
CC(C)c1ccc(-c2cc(-c3cn[nH]c3-c3ccccn3)ccn2)cc1	> 25 µM	18.5 µM
CCNCCNc1cc(-c2ccc(C(F)(F)F)cc2)c(C#N)c2nc3ccccc3n12	2.64 µM	1.24 µM
CCOC(=O)C1CCN(S(=O)(=O)/N=C2/NC(=O)NC2=C(Cl)Cl)CC1	3.32 µM	1.83 µM

The compounds below were run on OVCAR-8 ovarian (assay: NCI-60 cell line screen, 48 h).

Compound	TGI	GI50
O=C(Nc1nnc(-c2ccc(Cl)cc2)o1)C(SC(=S)N1CCOCC1)c1ccccc1 (stereo not drawn)	> 100 µM	
CC(C)c1ccc(-c2cc(-c3cn[nH]c3-c3ccccn3)ccn2)cc1	> 25 µM	9.57 µM
CCNCCNc1cc(-c2ccc(C(F)(F)F)cc2)c(C#N)c2nc3ccccc3n12	3.6 µM	1.75 µM
CCOC(=O)C1CCN(S(=O)(=O)/N=C2/NC(=O)NC2=C(Cl)Cl)CC1	19.9 µM	3.76 µM

What follows are compounds tested on 786-0 renal (assay: NCI-60 cell line screen, 48 h).

Compound	TGI	GI50
O=C(Nc1nnc(-c2ccc(Cl)cc2)o1)C(SC(=S)N1CCOCC1)c1ccccc1 (stereo not drawn)	> 100 µM	
CC(C)c1ccc(-c2cc(-c3cn[nH]c3-c3ccccn3)ccn2)cc1	> 25 µM	> 18.8 µM
CCNCCNc1cc(-c2ccc(C(F)(F)F)cc2)c(C#N)c2nc3ccccc3n12	3.06 µM	1.57 µM
